Results taken from patent publication US20170210751A1, “PRMT5 INHIBITORS AND USES THEREOF” (Epizyme, Inc., priority 2014, published 2017).

Columns and labels:
PRMT5/MEP50 = target: T1, PRMT5/MEP50 (Homo sapiens, UniProt O14744); experiment: PRMT5 Biochemical Assay (PRMT5/MEP50 enzyme assay on peptide substrate, 3H-SAM Flashplate); conditions: PRMT5/MEP50 4 nM, 3H-SAM 75 nM, peptide 40 nM, 30 min preincubation at 25 degrees Celsius
T1 construct: Flag-PRMT5; made in house; host or cells: Spodoptera frugiperda (SF9) insect cells, baculovirus (pDEST8)
T1 sequence (O14744 with tags, fused parts or gaps): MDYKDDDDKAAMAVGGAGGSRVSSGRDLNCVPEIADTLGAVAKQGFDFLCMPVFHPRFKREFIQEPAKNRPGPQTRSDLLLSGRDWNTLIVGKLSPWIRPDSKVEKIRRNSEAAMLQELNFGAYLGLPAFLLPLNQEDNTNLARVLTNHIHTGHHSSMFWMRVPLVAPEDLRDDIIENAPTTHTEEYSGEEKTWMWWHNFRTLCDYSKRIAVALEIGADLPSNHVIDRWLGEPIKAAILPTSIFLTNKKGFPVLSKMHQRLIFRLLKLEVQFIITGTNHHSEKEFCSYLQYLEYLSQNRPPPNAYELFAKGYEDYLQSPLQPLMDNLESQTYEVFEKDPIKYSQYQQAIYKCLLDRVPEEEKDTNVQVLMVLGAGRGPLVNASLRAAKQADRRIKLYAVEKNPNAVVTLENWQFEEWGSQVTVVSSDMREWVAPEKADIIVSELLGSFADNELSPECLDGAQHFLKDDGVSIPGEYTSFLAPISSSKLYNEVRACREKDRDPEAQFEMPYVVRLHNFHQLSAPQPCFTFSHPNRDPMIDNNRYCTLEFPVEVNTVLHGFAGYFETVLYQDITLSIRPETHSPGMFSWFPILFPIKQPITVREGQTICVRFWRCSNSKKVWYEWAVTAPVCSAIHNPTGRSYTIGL
T1 sequence (Q9BQA1 with tags, fused parts or gaps partner limits assumed): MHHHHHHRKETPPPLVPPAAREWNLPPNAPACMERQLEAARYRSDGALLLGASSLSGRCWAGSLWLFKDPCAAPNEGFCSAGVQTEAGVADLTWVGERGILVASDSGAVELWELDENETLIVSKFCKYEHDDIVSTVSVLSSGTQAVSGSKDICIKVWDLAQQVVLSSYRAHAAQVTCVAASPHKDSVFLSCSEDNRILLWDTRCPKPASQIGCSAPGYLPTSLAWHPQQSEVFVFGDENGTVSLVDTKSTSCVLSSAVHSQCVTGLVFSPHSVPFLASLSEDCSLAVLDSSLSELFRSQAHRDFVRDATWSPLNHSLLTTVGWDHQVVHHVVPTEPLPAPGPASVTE
How it was run: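 FLAG-PRMT5/His-MEP50 from Sf9 cells (4 nM) preincubated 30 min at 25 °C with compounds, then reacted with 75 nM 3H-SAM and 40 nM biotinylated histone H4 1-15 peptide in Bicine pH 7.6, 1% DMSO. Stopped with 600 uM cold SAM; streptavidin Flashplate capture, scintillation counts; % inhibition fitted to 3- or 4-parameter curve.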

Z-138 cell line = experiment: Z-138 Proliferation Assay (Cell Titer Glo); assay type: cell-based; conditions: Homo sapiens, 120 h; Z-138 cells, 5 days incubation, ATP (Cell Titer Glo)
How it was run: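 Z-138 cells in RPMI with 10% FBS exposed 5 days at 37 °C to nine-point 3-fold dilutions, top 20 μM final, 0.2% DMSO, triplicate. ATP-based CellTiter-Glo luminescence; IC50 from 4-parameter fit of normalized curves.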

SMILES | IC50 (PRMT5/MEP50) [µM] | EC50 (Z-138 cell line) [µM]
CC(=O)N1CC(Nc2cc(C(=O)NC[C@H](O)CN3CCc4sccc4C3)ncn2)C1 [Compound 1-2, (S)-6-((1-acetylazetidin-3-yl)amino)-N-(3-(6,7-dihydrothieno[3,2-c]pyridin-5(4H)-yl)-2-hydroxypropyl)pyrimidine-4-carboxamide] | < 0.1 | 0.101 to 1
CC(=O)N1CCC(Nc2cc(C(=O)NC[C@H](O)CN3CCc4ncsc4C3)ncn2)CC1 [Compound 1-18, (S)-6-((1-acetylpiperidin-4-yl)amino)-N-(3-(6,7-dihydrothiazolo[5,4-c]pyridin-5(4H)-yl)-2-hydroxypropyl)pyrimidine-4-carboxamide] | 1 to 10 | > 5
CC(=O)N1CC(Nc2cc(C(=O)NC[C@H](O)CN3CCc4scc(C)c4C3)ncn2)C1 [Compound 1-12, (S)-6-((1-acetylazetidin-3-yl)amino)-N-(2-hydroxy-3-(3-methyl-6,7-dihydrothieno[3,2-c]pyridin-5(4H)-yl)propyl)pyrimidine-4-carboxamide] | < 0.1 | 0.101 to 1
CC(=O)N1CC(Nc2cc(C(=O)NC[C@H](O)CN3CCc4nc(N)sc4C3)ncn2)C1 [Compound 1-29] | 1 to 10 | > 5
CC(=O)N1CCC(Nc2cc(C(=O)NC[C@H](O)CN3CCc4scc(C)c4C3)ccn2)CC1 [Compound 1-14, (S)-2-((1-acetylpiperidin-4-yl)amino)-N-(2-hydroxy-3-(3-methyl-6,7-dihydrothieno[3,2-c]pyridin-5(4H)-yl)propyl)isonicotinamide] | < 0.1 | 0.101 to 1
CC(=O)N1CCC(Nc2cc(C(=O)NC[C@H](O)CN3CCc4sccc4C3)ncn2)CC1 [Compound 1-3, (S)-6-((1-acetylpiperidin-4-yl)amino)-N-(3-(6,7-dihydrothieno[3,2-c]pyridin-5(4H)-yl)-2-hydroxypropyl)pyrimidine-4-carboxamide] | < 0.1 | 0.101 to 1
CC(=O)N1CCC(Nc2cc(C(=O)NC[C@H](O)CN3CCc4nc(N)sc4C3)ncn2)CC1 [Compound 1-38] | 1 to 10 | > 5
CC(=O)N1CCC(Nc2cc(C(=O)NC[C@H](O)CN3CCc4sc(N)nc4C3)ccn2)CC1 [Compound 1-34] | 0.101 to 1 | > 5
CC(=O)N1CCC(Nc2cc(C(=O)NC[C@H](O)CN3CCc4cccnc4C3)ccn2)CC1 [Compound 2-21, (S)-2-((1-acetylpiperidin-4-yl)amino)-N-(3-(5,6-dihydro-1,7-naphthyridin-7(8H)-yl)-2-hydroxypropyl)isonicotinamide] | 0.101 to 1 | > 5
CC(=O)N1CC(Nc2cc(C(=O)NC[C@H](O)CN3CCc4sc(C)nc4C3)ncn2)C1 [Compound 1-27] | 1 to 10 | > 5
O=C(NC[C@H](O)CN1CCc2cnccc2C1)c1cc(NC2COC2)ncn1 [Compound 2-15] | 1 to 10 | > 5
CC(=O)N1CCC(Nc2cc(C(=O)NC[C@H](O)CN3CCc4ncccc4C3)ccn2)CC1 [Compound 2-20, (S)-2-((1-acetylpiperidin-4-yl)amino)-N-(3-(7,8-dihydro-1,6-naphthyridin-6(5H)-yl)-2-hydroxypropyl)isonicotinamide] | 0.101 to 1 | > 5
O=C(COc1cccc2cccnc12)NCC(O)CN1CCc2ccncc2C1 (stereo not drawn) [Compound 2-8, N-[2-hydroxy-3-(1,2,3,4-tetrahydro-2,7-naphthyridin-2-yl)propyl]-2-(quinolin-8-yloxy)acetamide] | 1 to 10 | > 5
CC(=O)N1CCC(Nc2cc(C(=O)NC[C@H](O)CN3CCc4sc(N)nc4C3)ncn2)CC1 [Compound 1-37] | 1 to 10 | > 5
CC(=O)N1CCC(Nc2cc(C(=O)NC[C@H](O)CN3CCc4sc(C)nc4C3)ncn2)CC1 [Compound 1-36] | 1 to 10 | > 5
CC(=O)N1CC(Nc2cc(C(=O)NC[C@H](O)CN3CCc4sc(N)nc4C3)ncn2)C1 [Compound 1-28] | 1 to 10 | > 5
Cc1csc2c1CN(C[C@@H](O)CNC(=O)c1cc(NC3COC3)ncn1)CC2 [Compound 1-11, (S)—N-(2-hydroxy-3-(3-methyl-6,7-dihydrothieno[3,2-c]pyridin-5(4H)-yl)propyl)-6-(oxetan-3-ylamino)pyrimidine-4-carboxamide] | 0.101 to 1 | 1 to 10
CC(=O)N1CCC(Nc2cc(C(=O)NC[C@H](O)CN3CCc4nc(N)sc4C3)ccn2)CC1 [Compound 1-35] | 0.101 to 1 | > 5

Further lines, with some results ahead:

IC50 (PRMT5/MEP50) [µM] | SMILES | EC50 (Z-138 cell line) [µM]
> 10 | Cn1cnc2c1CN(C[C@@H](O)CNC(=O)c1cc(NC3COC3)ncn1)CC2 [Compound 3-26, (S)—N-(2-hydroxy-3-(3-methyl-6,7-dihydro-3H-imidazo[4,5-c]pyridin-5(4H)-yl)propyl)-6-(oxetan-3-ylamino)pyrimidine-4-carboxamide] | > 5
1 to 10 | CC(=O)N1CCC(Nc2cc(C(=O)NC[C@H](O)CN3CCc4nn(C)cc4C3)ccn2)CC1 [Compound 3-53] | > 5
> 10 | CC(=O)N1CCC(Nc2cc(C(=O)NC[C@H](O)CN3CCc4nn(C)cc4C3)ncn2)CC1 [Compound 3-57] | > 5
> 10 | CC(=O)N1CCC(Nc2cc(C(=O)NC[C@H](O)CN3CCc4cn[nH]c4C3)ccn2)CC1 [Compound 3-50] | > 5
> 10 | O=C(NC[C@H](O)CN1CCc2[nH]cnc2C1)c1cc(NC2COC2)ncn1 [Compound 3-38, (S)—N-(3-(6,7-dihydro-1H-imidazo[4,5-c]pyridin-5(4H)-yl)-2-hydroxypropyl)-6-(oxetan-3-ylamino)pyrimidine-4-carboxamide] | > 5
> 10 | CC(=O)N1CC(Nc2cc(C(=O)NC[C@H](O)CN3CCc4oc(C)nc4C3)ncn2)C1 [Compound 4-2, (S)-6-((1-acetylazetidin-3-yl)amino)-N-(2-hydroxy-3-(2-methyl-6,7-dihydrooxazolo[4,5-c]pyridin-5(4H)-yl)propyl)pyrimidine-4-carboxamide] | > 5
> 10 | CC(=O)N1CCC(Nc2cc(C(=O)NC[C@H](O)CN3CCc4oc(C)nc4C3)ncn2)CC1 [Compound 4-3, (S)-6-((1-acetylpiperidin-4-yl)amino)-N-(2-hydroxy-3-(2-methyl-6,7-dihydrooxazolo[4,5-c]pyridin-5(4H)-yl)propyl)pyrimidine-4-carboxamide] | > 5
> 10 | CC(=O)N1CCC(Nc2cc(C(=O)NC[C@H](O)CN3CCc4oc(C)nc4C3)ccn2)CC1 [Compound 4-4, (S)-2-((1-acetylpiperidin-4-yl)amino)-N-(2-hydroxy-3-(2-methyl-6,7-dihydrooxazolo[4,5-c]pyridin-5(4H)-yl)propyl)isonicotinamide] | > 5
1 to 10 | CC(=O)N1CCC(Nc2cc(C(=O)NC[C@H](O)CN3CCc4c(cnn4C)C3)ccn2)CC1 [Compound 3-52] | > 5
> 10 | O=C(COc1cccc2cccnc12)NCC(O)CN1CCc2nc[nH]c2C1 (stereo not drawn) [Compound 3-10, N-(2-hydroxy-3-{3H,4H,5H,6H,7H-imidazo[4,5-c]pyridin-5-yl}propyl)-2-(quinolin-8-yloxy)acetamide] | > 5
> 10 | CC(=O)N1CC(Nc2cc(C(=O)NC[C@H](O)CN3CCc4[nH]c(C)nc4C3)ncn2)C1 [Compound 3-47] | > 5
> 10 | CC(=O)N1CCC(Nc2cc(C(=O)NC[C@H](O)CN3CCc4c(cnn4C)C3)ncn2)CC1 [Compound 3-56] | > 5
> 10 | Cc1nc2c(o1)CCN(C[C@@H](O)CNC(=O)c1cc(NC3COC3)ncn1)C2 [Compound 4-1, (S)—N-(2-hydroxy-3-(2-methyl-6,7-dihydrooxazolo[4,5-c]pyridin-5(4H)-yl)propyl)-6-(oxetan-3-ylamino)pyrimidine-4-carboxamide] | > 5
> 10 | CC(=O)N1CC(Nc2cc(C(=O)NC[C@H](O)CN3CCc4[nH]cnc4C3)ncn2)C1 [Compound 3-33, (S)-6-((1-acetylazetidin-3-yl)amino)-N-(3-(6,7-dihydro-1H-imidazo[4,5-c]pyridin-5(4H)-yl)-2-hydroxypropyl)pyrimidine-4-carboxamide] | > 5
> 10 | CC(=O)N1CC(Nc2cc(C(=O)NC[C@H](O)CN3CCc4cn[nH]c4C3)ncn2)C1 [Compound 3-44] | > 5
1 to 10 | CC(=O)N1CC(Nc2cc(C(=O)NC[C@H](O)CN3CCc4[nH]nc(-c5ccccc5)c4C3)ncn2)C1 [Compound 3-11, (S)-6-((1-acetylazetidin-3-yl)amino)-N-(2-hydroxy-3-(3-phenyl-6,7-dihydro-1H-pyrazolo[4,3-c]pyridin-5(4H)-yl)propyl)pyrimidine-4-carboxamide] | > 5
> 10 | O=C(NC[C@H](O)CN1CCc2[nH]nc(-c3ccccc3)c2C1)c1cc(NC2COC2)ncn1 [Compound 3-17, (S)—N-(2-hydroxy-3-(3-phenyl-6,7-dihydro-1H-pyrazolo[4,3-c]pyridin-5(4H)-yl)propyl)-6-(oxetan-3-ylamino)pyrimidine-4-carboxamide] | > 5
> 10 | CC(=O)N1CCC(Nc2cc(C(=O)NC[C@H](O)CN3CCc4c(ncn4C)C3)ccn2)CC1 [Compound 3-22, (S)-2-((1-acetylpiperidin-4-yl)amino)-N-(2-hydroxy-3-(1-methyl-6,7-dihydro-1H-imidazo[4,5-c]pyridin-5(4H)-yl)propyl)isonicotinamide] | > 5
